“Also recorded” adds a separate entry of the source.
How the values were obtained:
[1] = tested on: HIV-1 NL4-3; assay: Single round HIV infectivity in HeLa37 cells; type: cell-based
[2] = tested on: HeLa37 cells; assay: Cell viability; type: cell-based; details: concentrations as high as 100 µg/mL

CC1(C)CCc2c(O)c(C(=O)CC(=O)c3ccccc3)c(O)c(C=O)c2O1 [Compound 12, 6-(1,3-Dioxo-3-phenylpropyl)-2,2-dimethyl-8-formylchroman-5,7-diol]
anti-HIV activity (in words) [1]: good activity | cytotoxicity (in words) [2]: highest cytotoxicity; also recorded: significant cytotoxicity at the higher concentrations tested

CC(=O)c1c(O)c2c(c(C(C)=O)c1O)OC(C)(C)CC2 [Compound 6, 6,8-diacetyl-2,2-dimethylchroman-5,7-diol]
anti-HIV activity (in words) [1]: least active

— publication PMC3725577 (Bioorganic & medicinal chemistry letters, 2011)
